Results: article PMC11304990, “Identification of mitochondrial ATP synthase as the cellular target of Ru-polypyridyl-β-carboline complexes by affinity-based protein profiling” (National Science Review, 2024)

Legend:
prostate cancer (PC3) = assay: MTT antiproliferative assay, PC3; type: cell-based, human; conditions: 72 h
Description: (§1) Ru3–Ru9 also show a certain selectivity for cancer cells over normal cells, and Ru2, Ru3, Ru5 and Ru9 show higher selectivity index (SI) values than the other complexes.
(§2) PA-BPP was then used to confirm the molecular targets of Ru5 by modifying it with a ‘minimalist’ biorthogonal handle-containing photo-cross-linker. Through our structure–activity relationship analysis and comparison with other ruthenium complexes utilizing phen as the auxiliary ligands with similar coordination structures (using cisplatin as a control), we propose that the β-carboline ligands play an important role in antiproliferative activity. To maintain the binding characteristics of the β-carboline moiety with the targeted biomolecules, we linked the photo-cross-linker to one of the auxiliary ligands of Ru5.

[1] = tested on: human lung fibroblast-like (HLF) cells; assay: MTT antiproliferative assay, HLF; type: cell-based; conditions: 72 h
Description: as §1, §2

A549 cells [2] = assay: Wound healing and transwell migration assays; type: cell-based, human; conditions: 5 μM
Protocol: Figure 4. Ru5 induces mitophagy and ferroptosis and inhibits EMT in vitro. (A) TEM images of A549 cells treated with vehicle (1% DMSO) or Ru5 (10 μM, 12 h). Red rectangles represent the region enlarged. Scale bar: 5 μm and 500 nm (enlarged). (B) The morphological examination of mitochondria in A549 cells treated with Ru5 (10 μM) for the indicated time intervals. MTG: λex = 514 nm; λem = 540 ± 20 nm. LTDR: λex = 633 nm; λem = 700 ± 20 nm. Scale bar: 20 μm. (C) Western blotting analysis showing the impact of Ru5 (24 h) on the expression of proteins related to mitochondrial dysfunction and ferroptosis. (D and E) The impact of different inhibitors on antiproliferative activity of Ru5 (24 h). (F) RT-qPCR analysis of EMT-related genes in A549 cells after Ru5 (10 μM, 12 h) treatment. (G) The impact of Ru5 (5 μM) on the migration of A549 cells was measured by a wound healing assay. Scale bar: 100 μm. (H) Quantitative analysis of the impact of Ru5 on wound healing. (I) Selective images of the impact of Ru5 (5 μM, 48 h) on the migration of A549 cells detected by transwell assay. Scale bar: 100 μm. […] Firstly, real-time quantitative polymerase chain reaction (RT-qPCR) experiments (Fig. 4F) confirm that Ru5 can down-regulate genes including CDH1 (cadherin 1), FN1 (fibronectin 1) and MMP2 (matrix metallopeptidase 2).

A549 cells [3] = assay: Mitochondrial respiration (OCR) by Seahorse XF analyzer; type: cell-based, human; conditions: 5 μM
Description: As Ru5 is located in mitochondria and inhibits ATPase related to mitochondrial respiration, we then evaluated its impact on oxygen consumption rate (OCR) using the Seahorse XF analyzer. Ru5 inhibits ATP-linked respiration, basal respiration and maximal respiration capacity, and it also increases the proton leak and alters non-mitochondrial respiration (Fig. 2A and Fig. S43). Accordingly, Ru5 treatment leads to an increase in the opening of the mitochondrial permeability transition pore (MPTP) of A549 in a concentration-dependent manner (Fig. 2B). […] The colocalization of the fluorescence of dihydrorhodamine 123 (DHR-123) with MitoTracker Deep Red (MTDR) indicates ROS are mainly generated in mitochondria (Fig. 2E).
Figure 2. […] (A) Impact of Ru5 (5 μM) on mitochondrial respiration of A549 cells measured by Seahorse. The OCR was measured under basal conditions, and after the sequential addition of oligomycin (1 μM), carbonyl cyanide 4-(trifluoromethoxy)phenylhydrazone (FCCP, 0.8 μM) and a mixture of rotenone (0.5 μM) and antimycin A (0.5 μM, R&A). […] The cells were treated with Ru5 for 6 h and analyzed by flow cytometry. λex = 488 nm, λem = 520 ± 20 nm. (C) Impact of Ru5 (5 μM) on MMP measured by JC-1 staining. […]

IC50 (prostate cancer (PC3)): 2.7 ± 0.4 µM
Structure (SMILES): F[P-](F)(F)(F)(F)F.F[P-](F)(F)(F)(F)F.[Ru+2].c1ccc2c(c1)[nH]c1c(-c3ncc[nH]3)nccc12.c1cnc2c(c1)ccc1cccnc12.c1cnc2c(c1)ccc1cccnc12 [Ru5]
IC50 [1]: 33.9 ± 0.2 µM
Migration rates of A549 cells (A549 cells [2]): markedly decrease
ATP-linked respiration, basal respiration and maximal respiration capacity (OCR) (A549 cells [3]): inhibits
